Source: patent publication US20260240819A1, “KAT6 INHIBITOR METHODS AND COMBINATIONS FOR CANCER TREATMENT” (Pfizer Inc., priority 2020, published 2026)
Where “and” joins values, the source holds several entries; their conditions need not be identical. Equal values may be shown once.

Tests used:
[1] = Bodyweight and health monitoring, PDX ST340 study; type: in vivo, female athymic nude mice; conditions: relative to day 0
Description: (§1) Combination studies with palbociclib, fulvestrant and the KAT6 inhibitor, Compound E (KAT6i), were performed in two ER+ breast cancer PDX models: ST340 and ST941. ST340 was wildtype for ESR1. […] Both studies were conducted by XenoSTART (San Antonio, Texas), where 6-12 week-old female athymic nude mice (JAX, stock #007850) were subcutaneously implanted with ~70 mg tumor fragments. Animals were supplemented with exogenous estradiol ad libitum via drinking water throughout the duration of the studies. Tumor measurements and animal weights were captured twice per week, and animals were stratified and enrolled into the study when the mean tumor volume (TV, formula: width^2×length×0.5) reached 150-300 mm^3.
(§2) Each study contained eight treatment groups of n=10 animals per group. The groups were as follows: 1) Vehicle (5% DMSO/40% PEG300/55% 1×PBS), 2) Compound E, 3) palbociclib, 4) fulvestrant, 5) palbociclib+fulvestrant, 6) Compound E +fulvestrant, 7) Compound E+palbociclib, and 8) Compound E+palbociclib+fulvestrant. Animals remained on study and were continued on treatments until the mean tumor volume of each group reached ~1500 mm^3. At that point, the final dose was administered, animals were sacrificed, and terminal samples were collected. Blood microsamples were collected from each group for pharmacokinetics (PK) analysis at 0, 3, and 7 hrs (n=3/timepoint) on day 14 of dosing and again on the terminal day of dosing.
(§3) Analysis of covariance (ANCOVA) was used to determine statistical significance when comparing percent TGI between groups. Changes in bodyweights were calculated in relation to starting bodyweights at study initiation (day 0 of treatment).

[2] = tested on: ER+ breast cancer PDX model ST340; assay: PDX tumor growth inhibition study; type: in vivo, female athymic nude mice; conditions: doses per Table 7; for % TGI Delta: PDX ST340, day 21, compared to Vehicle; for Mean ± SEM (day 21): PDX ST340, tumor volume (mm^3)
Description: as §1, §2, §3

[3] = Bodyweight and health monitoring, PDX ST941 study; type: in vivo, female athymic nude mice; conditions: relative to day 0
Description: as §1, §2, §3

[4] = tested on: T47D cells; assay: Proliferation colony formation assay (SRB stain); type: cell-based; conditions: Homo sapiens, 288 h, single agent, 12 days, read-out: Concentration giving 50% proliferation inhibition
Description: (§4) T47D, ZR-75-1, or MCF7 cells were seeded into 6-well tissue culture plates at 10% seeding confluence (100,000-150,000 cells per well). After allowing 18-24 hours for the cells to attach to the wells, growth media was aspirated and discarded and new growth media containing 0-20 μM of either COMPOUND A or COMPOUND B was added in 2-fold increments of descending concentration from 20 μM to the cells (proliferation assay). In parallel, seeded cultures with the same titration of the KAT6 inhibitors was added to the cells. 500 nM palbociclib was also added for each concentration of the KAT6 inhibitors (palbociclib recovery assay). The cultures were incubated 12-14 days and treated with these inhibitors/inhibitor combinations. Growth media containing the inhibitors was replaced on the cell cultures every 3-4 days (twice per week).
For the KAT6 inhibitor treated T47D cultures (proliferation assay), after 12 days the vehicle (DMSO) treated cultures were >90% confluent and the cell cultures were SRB stained as described in Example 3. The stained 6-well plates were scanned using an Epson Perfection V600 Photo Scanner and Epson Scan version 3.9.2.0 software. To quantitate SRB staining in each 6-well culture, the cultures were destained with 2 mL 10 mM Tris pH 7.5 per well and the absorbance at 565 nm (O.D. 565) of the released stain was measured using a SpectraMax Plus plate reader and SoftMaxPro 5.4.3 software. Inhibition of T47D cell proliferation by both COMPOUND A and COMPOUND B were equivalent with 50% proliferation inhibition observed with 10 μM of the KAT6 inhibitors (FIGS. 8A and 8C).
Cells were plated at low density into 6-well culture dishes and allowed to attach overnight at 37° C., 5% CO2. The next day, in parallel to the proliferation set, palbociclib was added at a final concentration of […] to another set of plates, which served as the set for palbociclib recovery. To both proliferation and palbociclib recovery plates, DMSO or KAT6 inhibitor was added into each well at increasing doses. Medium and KAT6 inhibitor were refreshed twice a week. Cells were cultured for about two weeks of drug treatment until the DMSO-treated wells reached confluency. At the end of treatment, cells were washed once with phosphate-buffered saline and were fixed and stained with SRB for visualization followed by quantification. […] Wells were fixed and stained with SRB for visualization followed by quantification. To quantify the stain, stained cells were dissolved in 2 mL of 10 mM Tris-HCl, pH 7.5 and shaken for 10 min on a shaker. Samples were then diluted with 10 mM Tris-HCl, pH 7.5, transferred to a 96-well microtiter plate in a volume of 100 μL and read on SpetraMax at 565 nm.

[5] = tested on: T47D cells; assay: Palbociclib recovery colony formation assay (SRB stain); type: cell-based; conditions: Homo sapiens, read-out: KAT6 inhibitor concentration giving 50% inhibition of recovery, with 500 nM palbociclib 14 days, then 14 days recovery
Description: as §4
For the T47D cultures arrested with 500 nM palbociclib and treated with increasing concentration of the KAT6 inhibitors (palbociclib recovery assay), after 14 days of combination treatment the growth media containing the inhibitors was aspirated from the cultures and discarded. […] After allowing 14 days for the cultures to recover, those that recovered from single agent 500 nM palbociclib arrest were >90% confluent and all the palbociclib recovery cultures were SRB stained, scanned, and destained/measured as described above. […]

[6] = tested on: ZR-75-1 cells; assay: as above; type: cell-based; conditions: Homo sapiens, read-out: Concentration giving 50% inhibition of recovery; ZR-75-1, with 500 nM palbociclib 14 days, then 22 days recovery
Description: as §4
(§5) For the ZR-75-1 and MCF7 experiments, only COMPOUND A was tested. For the single agent treated ZR-75-1 cultures the vehicle treated cultures were >90% confluent after 12 days of treatment. These cultures were SRB stained, scanned, and destained/measured as described above. […] After 22 days of recovery, the ZR-75-1 cultures that had been treated with single agent 500 nM palbociclib were >90% confluent and these palbociclib recovery assay cultures were SRB stained, scanned, and destained/measured as described above.

[7] = tested on: MCF7 cells; assay: as above; type: cell-based; conditions: Homo sapiens, read-out: Concentration giving 50% inhibition of recovery; MCF7, with 500 nM palbociclib 14 days, then 10 days recovery
Description: as §4
(§6) The MCF7 cells were tested with COMPOUND A. For the single agent treated MCF7 cultures, the vehicle treated cultures were >90% confluent after 10 days of treatment. These cultures were SRB stained, scanned, and destained/measured as described above. […] After 10 days of recovery, the MCF7 cultures that had been treated with single agent 500 nM palbociclib were >90% confluent and these palbociclib recovery assay cultures were SRB stained, scanned, and destained/measured as described above.

[8] = tested on: ZR-75-1 cells; assay: Proliferation colony formation assay (SRB stain); type: cell-based; conditions: Homo sapiens, 288 h, read-out: Concentration giving 50% inhibition of proliferation; ZR-75-1, single agent, 12 days
Description: as §4, §5
Cells were plated at low density into 6-well culture dishes and allowed to attach overnight at 37° C., 5% CO2. […] At the end of treatment, cells were washed once with phosphate-buffered saline and were fixed and stained with SRB for visualization followed by quantification. […] Wells were fixed and stained with SRB for visualization followed by quantification. To quantify the stain, stained cells were dissolved in 2 mL of 10 mM Tris-HCl, pH 7.5 and shaken for 10 min on a shaker. Samples were then diluted with 10 mM Tris-HCl, pH 7.5, transferred to a 96-well microtiter plate in a volume of 100 μL and read on SpetraMax at 565 nm.

[9] = tested on: ESR1 (encoding estrogen receptor alpha (ERα)) expression in T47D cells; assay: GeneChip gene expression analysis; type: cell-based; conditions: 10 μM, 6 days
Description: T47D cell lines having either the Tet-ON KAT6A_5, KAT6A_6, or shRenilla shRNAs were treated with 0.2 μg/mL doxycycline to induce expression of the respective shRNA in the T47D cells and initiate knockdown of KAT6A (KAT6A_5 and KAT6A_6 cells only). The cells were treated with doxycycline for 4 days, which provided suffient time for KAT6A protein depletion in the cells. On day 3 of doxycycline treatment, the KAT6A_5, KAT6A_6, and shRenilla T47D cells were suspended and seeded into 6-well tissue cultures plates at 10% confluence. Parental T47D cells (no shRNA) were also seeded into 6-well tissue culture plates at 10% confluence. On day 4 after shRNA induction, half the T47D KAT6A_5, KAT6A_6, and shRenilla cultures were treated with 0.5 μM palbociclib and half the cultures were kept untreated. All cultures were kept in growth media containing 0.2 μg/mL doxycycline to maintain KAT6A knockdown in the cells throughout the experiment. The parental T47D cells were split into four groups as follows: (1) vehicle treated (DMSO), (2) vehicle+0.5 μM palbociclib, (3) 10 μM COMPOUND A treated, and (4) 10 μM COMPOUND A+0.5 μM palbociclib. The parental T47D and T47D-shRNA cell lines were subsequently treated for 6 days and the growth media, containing the inhibitors represented the different growth conditions described above, was replaced once on day 3 of treatment. […]

[10] = tested on: MCF7 cells; assay: Proliferation colony formation assay (SRB stain); type: cell-based; conditions: Homo sapiens, 240 h, read-out: Concentration giving 50% inhibition of proliferation; MCF7, single agent, 10 days
Description: as §4, §6

Day 21 mean change in bodyweight [1]	Maximum mean bodyweight loss [1]	Day 17 mean change in bodyweight [3]	Maximum mean bodyweight loss [3]	IC50 [4]	IC50 [5]	IC50 [7]	IC50 [10]	Compound	% TGI Delta [2]	% TGI Delta ([2]; listed as fulvestrant)	Mean ± SEM (day 21) [2]	IC50 [6]	IC50 [8]	ESR1 expression and downstream ERα regulated genes [9]
+5%	−2%	0%	−5%	–	–	–	–	C[C@]12CC[C@@H]3c4ccc(O)cc4C[C@@H](CCCCCCCCC[S+]([O-])CCCC(F)(F)C(F)(F)F)[C@H]3[C@@H]1CC[C@@H]2O (stereo partly shown) [Fulvestrant]	21.3%	~ 20%	1370 ± 195	–	–	–
−2%	−4%	+5%	−4%	–	–	–	–	COc1ccccc1S(=O)(=O)Nc1noc2cc(Cn3cccn3)cc(OC)c12 [Compound E, 2-methoxy-N-{4-methoxy-6-[(1H-pyrazol-1-yl)methyl]-1,2-benzoxazol-3-yl}benzene-1-sulfonamide]	55% and 55.4%	–	882 ± 86	–	–	–
–	–	–	–	10 µM	2.5 µM	–	–	O=C(NNS(=O)(=O)c1ccccc1)c1cc(-c2ccccc2)cc(Cl)c1F [COMPOUND B, N′-(5-chloro-4-fluoro-[1,1′-biphenyl]-3-carbonyl)benzenesulfonohydrazide]	–	–	–	–	–	–
–	–	–	–	10 µM	5 µM	5 µM	> 20 µM	Cc1cc(-c2ccccc2)cc(C(=O)NNS(=O)(=O)c2ccccc2)c1F [COMPOUND A, N′-(4-fluoro-5-methyl-[1,1′-biphenyl]-3-carbonyl)benzenesulfonohydrazide]	–	–	–	2.5 µM	0.3 µM	significant downregulation
